# From US11307204B2, “5-ALA for detection of brain tumors” (PIOMA, INC., priority 2012, dated 2022)
# Tested on: U87 cells
# Test: Flow cytometry detection of PPIX in U87 cells exposed to 5-ALA
# Type: cell-based
# Conditions: serum-free, 5-ALA 250 μg/ml, excitation 406 nm, filter 610/20
# Experimental: U87 cells representative of GBM tumors grown in T-75 flasks, in the absence of serum, were exposed to 5-aminolevulinic acid ([…]; 250 μg/ml) for 4 or 24 hours. Following exposure, cells were subjected to fluorescent excitation in a LSRII flow cytometer with an excitation at 406 nm violet wave length. Filter specifications were set at either 450/50, or set at 610/20 for the detection of protoporphyrin IX (PPIX).
smiles,measurement,setting,value
"NCC(=O)CCC(=O)O [5-ALA, 5-aminolevulinic acid]","mean fluorescence index (MFI), PPIX",4 hours,MFI increased
same,"mean fluorescence index (MFI), PPIX",24 hours,MFI increased
